Data reported in patent US11820766B2, “Monoacylglycerol lipase modulators” (Janssen Pharmaceutica NV, priority 2018, dated 2023).
Counter-ions that a name gives are not always drawn.

Molecular target: T1, human MGL from HeLa cells (Homo sapiens, UniProt Q99685)
T1 construct: combining endogenously expressed MGL from HeLa cells with test compounds; endogenous in cells; host or cells: HeLa cells / cell homogenates
T1 sequence (Q99685 1-303): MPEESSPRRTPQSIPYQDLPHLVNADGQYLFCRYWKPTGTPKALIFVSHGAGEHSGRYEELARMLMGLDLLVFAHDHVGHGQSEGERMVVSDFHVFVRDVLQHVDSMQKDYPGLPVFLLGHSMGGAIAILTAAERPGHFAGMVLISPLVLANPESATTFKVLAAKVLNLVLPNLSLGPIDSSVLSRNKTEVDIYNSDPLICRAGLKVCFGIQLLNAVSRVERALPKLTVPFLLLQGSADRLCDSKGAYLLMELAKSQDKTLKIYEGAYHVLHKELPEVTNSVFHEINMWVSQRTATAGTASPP
Test: In vitro MGL activity assay: [glycerol-1,3-3H]-oleyl glycerol cleavage by MGL from HeLa cells
Format: biochemical
Settings: 300 nM [Glycerol-1,3-3H]-oleyl glycerol, one hour
Description: MGL is the predominant hydrolase in HeLa cells/cell homogenates.

Row | IC50 | SMILES
1 | 173 nM | C[C@H]1c2nn(C)c(-c3cc(F)c(F)c(F)c3)c2CCN1C(=O)c1ccc2c(c1)OCC(=O)N2C [Example 590, 7-[(7S)-2,7-Dimethyl-3-(3,4,5-trifluorophenyl)-5,7-dihydro-4H-pyrazolo[3,4-c]pyridine-6-carbonyl]-4-methyl-1,4-benzoxazin-3-one.TFA salt]
2 | 7.31 nM | C[C@H]1c2nn(C)c(-c3cc(F)c(F)c(F)c3)c2CCN1C(=O)c1cccc2c1OCCN2 [Example 592, 3,4-Dihydro-2H-1,4-benzoxazin-8-yl-[(7S)-2,7-dimethyl-3-(3,4,5-trifluorophenyl)-5,7-dihydro-4H-pyrazolo[3,4-c]pyridin-6-yl]methanone]
3 | 28.7 nM | C[C@H]1c2nn(C)c(-c3cc(F)cc(OC(F)F)c3)c2CCN1C(=O)c1ccc2c(c1)OCCC2 [Example 596, Chroman-7-yl-[(7S)-3-[3-(difluoromethoxy)-5-fluoro-phenyl]-2,7-dimethyl-5,7-dihydro-4H-pyrazolo[3,4-c]pyridin-6-yl]methanone]
4 | 25 nM | COc1nccc(C(=O)N2CCc3c(nn(C)c3-c3cc(F)cc(OC(F)F)c3)[C@@H]2C)c1C [Example 597, [(7S)-3-[3-(Difluoromethoxy)-5-fluoro-phenyl]-2,7-dimethyl-5,7-dihydro-4H-pyrazolo[3,4-c]pyridin-6-yl]-(2-methoxy-3-methyl-4-pyridyl)methanone]
5 | 71.4 nM | COc1c(C(=O)N2CCc3c(nn(C)c3-c3cc(F)c(F)c(F)c3)[C@@H]2C)ccnc1C [Example 599, [(7S)-2,7-Dimethyl-3-(3,4,5-trifluorophenyl)-5,7-dihydro-4H-pyrazolo[3,4-c]pyridin-6-yl]-(3-methoxy-2-methyl-4-pyridyl)methanone]
6 | 18.2 nM | COc1cncc(F)c1C(=O)N1CCc2c(nn(C)c2-c2cc(F)c(F)c(F)c2)[C@@H]1C [Example 607, [(7S)-2,7-Dimethyl-3-(3,4,5-trifluorophenyl)-5,7-dihydro-4H-pyrazolo[3,4-c]pyridin-6-yl]-(3-fluoro-5-methoxy-4-pyridyl)methanone]
7 | 22.7 nM | COc1nccc(C(=O)N2CCc3c(nn(C)c3-c3cc(F)cc(C(F)F)c3)[C@@H]2C)c1C [Example 609, [(7S)-3-[3-(Difluoromethyl)-5-fluoro-phenyl]-2,7-dimethyl-5,7-dihydro-4H-pyrazolo[3,4-c]pyridin-6-yl]-(2-methoxy-3-methyl-4-pyridyl)methanone]
8 | 29.8 nM | COc1ccnc(C(=O)N2CCc3c(nn(C)c3-c3cc(F)cc(OC(F)F)c3)[C@@H]2C)c1Cl [Example 612, (3-Chloro-4-methoxy-2-pyridyl)-[(7S)-3-[3-(difluoromethoxy)-5-fluoro-phenyl]-2,7-dimethyl-5,7-dihydro-4H-pyrazolo[3,4-c]pyridin-6-yl]methanone]
9 | 27.8 nM | COc1cc(F)cc(-c2c3c(nn2C)[C@H](C)N(C(=O)c2ccnc(OC)c2C)CC3)c1 [Example 613, [(7S)-3-(3-Fluoro-5-methoxy-phenyl)-2,7-dimethyl-5,7-dihydro-4H-pyrazolo[3,4-c]pyridin-6-yl]-(2-methoxy-3-methyl-4-pyridyl)methanone]
10 | 35.9 nM | COc1cc(F)cc(-c2c3c(nn2C)[C@H](C)N(C(=O)c2nccc(OC)c2Cl)CC3)c1 [Example 614, (3-Chloro-4-methoxy-2-pyridyl)-[(7S)-3-(3-fluoro-5-methoxy-phenyl)-2,7-dimethyl-5,7-dihydro-4H-pyrazolo[3,4-c]pyridin-6-yl]methanone]

The remaining lines, values behind:

Row | SMILES | IC50
11 | C[C@H]1c2nn(C)c(-c3cc(F)c(F)c(F)c3)c2CCN1C(=O)c1cccc2[nH]c(=O)oc12 [Example 587, 7-[(7S)-2,7-Dimethyl-3-(3,4,5-trifluorophenyl)-5,7-dihydro-4H-pyrazolo[3,4-c]pyridine-6-carbonyl]-3H-1,3-benzoxazol-2-one] | 13.4 nM
12 | C[C@H]1c2nn(C)c(-c3cc(F)c(F)c(F)c3)c2CCN1C(=O)c1ccc2[nH]c(=O)oc2c1 [Example 588, 6-[(7S)-2,7-Dimethyl-3-(3,4,5-trifluorophenyl)-5,7-dihydro-4H-pyrazolo[3,4-c]pyridine-6-carbonyl]-3H-1,3-benzoxazol-2-one] | 11.3 nM
13 | C[C@H]1c2nn(C)c(-c3cc(F)c(F)c(F)c3)c2CCN1C(=O)c1cccc2c1oc(=O)n2C [Example 589, 7-[(7S)-2,7-dimethyl-3-(3,4,5-trifluorophenyl)-5,7-dihydro-4H-pyrazolo[3,4-c]pyridine-6-carbonyl]-3-methyl-1,3-benzoxazol-2-one] | 1.84 nM
14 | C[C@H]1c2nn(C)c(-c3cc(F)c(F)c(F)c3)c2CCN1C(=O)c1cccc2c1OCC(=O)N2C [Example 591, [(7S)-2,7-8-[(7S)-2,7-Dimethyl-3-(3,4,5-trifluorophenyl)-5,7-dihydro-4H-pyrazolo[3,4-c]pyridine-6-carbonyl]-4-methyl-1,4-benzoxazin-3-one.TFA salt] | 4.18 nM
15 | COc1nccc(C(=O)N2CCc3c(nn(C)c3-c3ccc(F)c(C(F)F)c3)[C@@H]2C)c1C [Example 593, [(7S)-3-[3-(Difluoromethyl)-4-fluoro-phenyl]-2,7-dimethyl-5,7-dihydro-4H-pyrazolo[3,4-c]pyridin-6-yl]-(2-methoxy-3-methyl-4-pyridyl)methanone] | 57 nM
16 | COc1nccc(C(=O)N2CCc3c(nn(C)c3-c3cccc(C(C)(F)F)c3)[C@@H]2C)c1C [Example 594, [(7S)-3-[3-(1,1-Difluoroethyl)phenyl]-2,7-dimethyl-5,7-dihydro-4H-pyrazolo[3,4-c]pyridin-6-yl]-(2-methoxy-3-methyl-4-pyridyl)methanone] | 335 nM
17 | COc1nccc(C(=O)N2CCc3c(nn(C)c3-c3ccc(F)c(OC(F)F)c3)[C@@H]2C)c1C [Example 595, [(7S)-3-[3-(Difluoromethoxy)-4-fluoro-phenyl]-2,7-dimethyl-5,7-dihydro-4H-pyrazolo[3,4-c]pyridin-6-yl]-(2-methoxy-3-methyl-4-pyridyl)methanone] | 106 nM
18 | COc1nccc(C(=O)N2CCc3c(nn(C)c3-c3ccc(F)c(C)c3)[C@@H]2C)c1C [Example 598, [(7S)-3-(4-Fluoro-3-methyl-phenyl)-2,7-dimethyl-5,7-dihydro-4H-pyrazolo[3,4-c]pyridin-6-yl]-(2-methoxy-3-methyl-4-pyridyl)methanone] | 29.9 nM
19 | C[C@H]1c2nn(C)c(-c3cc(F)c(F)c(F)c3)c2CCN1C(=O)c1nc(-c2ccccc2)cn1C [Example 600, [(7S)-2,7-Dimethyl-3-(3,4,5-trifluorophenyl)-5,7-dihydro-4H-pyrazolo[3,4-c]pyridin-6-yl]-(1-methyl-4-phenyl-imidazol-2-yl)methanone] | 110 nM
20 | C[C@H]1c2nn(C)c(-c3cc(F)c(F)c(F)c3)c2CCN1C(=O)c1cn(-c2ccccc2)cn1 [Example 601, [(7S)-2,7-Dimethyl-3-(3,4,5-trifluorophenyl)-5,7-dihydro-4H-pyrazolo[3,4-c]pyridin-6-yl]-(1-phenylimidazol-4-yl)methanone] | 252 nM
21 | C[C@H]1c2nn(C)c(-c3cc(F)c(F)c(F)c3)c2CCN1C(=O)c1cnc(-c2ccccn2)n1C [Example 602, [(7S)-2,7-Dimethyl-3-(3,4,5-trifluorophenyl)-5,7-dihydro-4H-pyrazolo[3,4-c]pyridin-6-yl]-[3-methyl-2-(2-pyridyl)imidazol-4-yl]methanone] | 460 nM
22 | C[C@H]1c2nn(C)c(-c3cc(F)c(F)c(F)c3)c2CCN1C(=O)c1c(F)cccc1-n1cccn1 [Example 603, [(7S)-2,7-Dimethyl-3-(3,4,5-trifluorophenyl)-5,7-dihydro-4H-pyrazolo[3,4-c]pyridin-6-yl]-(2-fluoro-6-pyrazol-1-yl-phenyl)methanone] | 114 nM
23 | C[C@H]1c2nn(C)c(-c3cc(F)c(F)c(F)c3)c2CCN1C(=O)c1cccc2c1OC1(CC1)CN2 [Example 604, [(7S)-2,7-Dimethyl-3-(3,4,5-trifluorophenyl)-5,7-dihydro-4H-pyrazolo[3,4-c]pyridin-6-yl]-spiro[3,4-dihydro-1,4-benzoxazine-2,1′-cyclopropane]-8-yl-methanone] | 102 nM
24 | C[C@H]1c2nn(C)c(-c3cc(F)c(F)c(F)c3)c2CCN1C(=O)c1ccnc2[nH]cc(F)c12 [Example 605, [(7S)-2,7-Dimethyl-3-(3,4,5-trifluorophenyl)-5,7-dihydro-4H-pyrazolo[3,4-c]pyridin-6-yl]-(3-fluoro-1H-pyrrolo[2,3-b]pyridin-4-yl)methanone] | 1.1 nM
25 | C[C@H]1c2nn(C)c(-c3cc(F)c(F)c(F)c3)c2CCN1C(=O)c1ncnc2c1ncn2C [Example 606, [(7S)-2,7-Dimethyl-3-(3,4,5-trifluorophenyl)-5,7-dihydro-4H-pyrazolo[3,4-c]pyridin-6-yl]-(9-methylpurin-6-yl)methanone] | 724 nM
26 | COc1ccnc(C(=O)N2CCc3c(nn(C)c3-c3cc(F)cc(C(F)F)c3)[C@@H]2C)c1Cl [Example 608, (3-Chloro-4-methoxy-2-pyridyl)-[(7S)-3-[3-(difluoromethyl)-5-fluoro-phenyl]-2,7-dimethyl-5,7-dihydro-4H-pyrazolo[3,4-c]pyridin-6-yl]methanone] | 21.7 nM
27 | C[C@H]1c2nn(C)c(-c3cc(F)cc(C(F)F)c3)c2CCN1C(=O)c1ccc2c(c1)OCCC2 [Example 610, Chroman-7-yl-[(7S)-3-[3-(difluoromethyl)-5-fluoro-phenyl]-2,7-dimethyl-5,7-dihydro-4H-pyrazolo[3,4-c]pyridin-6-yl]methanone] | 29.4 nM
28 | COc1cc(F)cc(-c2c3c(nn2C)[C@H](C)N(C(=O)c2ccc4c(c2)OCCC4)CC3)c1 [Example 611, Chroman-7-yl-[(7S)-3-(3-fluoro-5-methoxy-phenyl)-2,7-dimethyl-5,7-dihydro-4H-pyrazolo[3,4-c]pyridin-6-yl]methanone] | 25.6 nM
